The conditions of data set [1]: pure liquids at 25° C.; cited from earlier work.
The test system of a further data set is Mucin. The experiment in a line: Mucoadhesion, tensile strength with texture analyzer, towards mucin. As to conditions: upper sample Mucin. On the procedure:
Mucoadhesion is related to the ability to adhere to the mucosa. […] Hygroscopic formulations absorbs water molecules but at different timescales depending on the composition. Tensile strength using micro balance texture analyzer was used to measure the mucoadhesion. The work needed to separate two layers from each other is calculated as well as the peak measured force.
The microemulsions show quite strong mucoadhesion, with similar tensile strength values. To get some reference values, the mucoadhesion of olive oil, propylene glycol and PGMO were also tested as well as the adhesion of microemulsions towards water. Propylene glycol was chosen to determine if humectant properties on its own had any influence on the adhesion strength.

For the compound `CC(O)CO` (stereo not shown) [Propylene Glycol, propylene glycol], the Surface tension in data set [1] was 45.6 mN/m. Also, the Peak force in the data set with Mucin was 0.50 ± 0.05 kg. In the data set with Mucin (work needed to separate layers), this compound gave a Mucoadhesion of 0.051 ± 0.009 kg·s.
Consider `OCC(O)CO` [glycerol], for which the Surface tension in data set [1] was 76 mN/m.

The record behind these values is patent US20170319641A1, “MUCOADHESIVE EMOLLIENT” (BIOGLAN AB, priority 2014, published 2017).
